According to US20090304607A1, “Antibacterial Flavor and Fragance Composition and Halitosis-Inhibition Flavor and Fragrance Composition and Oral Care Composition Containing the Same” (TAKASAGO INTERNATIONAL CORPORATION, priority 2002, published 2009):

Tests used:
[1] = tested on: Fusobacterium nucleatum JCM 6328 (Fn-1); experiment: Bactericidal activity, CFU measuring method per Quantitative Suspension Test (EN 1276); assay type: cell-based; conditions: for Results of Judgment 30 sec (Log decrease of number of bacteria vs control): 30 sec contact; for Results of Judgment 1 min (Log decrease of number of bacteria vs control): 1 min contact
Method: The strain used in the bactericidal activity was obtained from The Institute of Physical and Chemical Research which was known to be a pathogen of periodontal disease and also known to produce volatile sulfides.
Fn-1 was cultured on slants of GAM medium (Nissui Pharmaceutical Co. Ltd.) and added physical saline to make a cell suspension. In detail, to each slant cultured at 37° C. for 24 hours under an anaerobic condition using BBL gas-pack anaerobic system, 2 ml of physiological saline was added and scraped off the microbes with a transfer loop to make a cell suspension. This operation was repeated twice, and the combined suspension was centrifugalized, added again a half amount of physiological saline to the precipitate to make the suspension. The suspension was filtered through two sheets of sterile gauze to remove agar pieces and fibrous cells. The filtrate was centrifugalized again, the precipitate was re-suspended in physiological saline to use for the tests.
As for test solutions, fragrance samples were dissolved in equal weight of dimethylformamide (DMF) and were diluted with ethanol to necessary concentrations (volume/volume).
Each test solution (30 μl) was added to sterile distilled water and stirred or subjected to ultrasonic treatment to dissolve sample or to form a homogeneous suspension.
To each solution or homogeneous suspension, 333 μl of previous cell suspension of Fn-1 was added and stirred. After 30 seconds and 1 minute, each 333 μl was added to 3 ml of D/E Neutralization broth (DIFCO) (10 fold dilution), 100 fold and 1000 fold dilution liquids were made similarly. Each 50 μl of the liquid was spread on 15 ml of Trypticase soy agar plates using Autoplate 4000 (Spiral Biotec Co. Ltd., MD, USA) and were cultivated at 37° C. for 40 hours under anaerobic condition. After the cultivation, colonies were counted by Q-Count (Spiral Biotec Co. Ltd., MD, USA) to determine CFU/ml.
Suspension, as a control, consisted of 3 ml of water and 333 μl of the cell suspension, and also suspension as a reference, consisted of 3 ml of water, 30 μl of ethanol and 333 μl of the cell suspension was employed to determine CFU/ml thereof.
“30 sec” and “1 min” were shown the sampling time, and “Log inc.” was shown the mean Log value of the control.

[2] = tested on: volatile sulfide production from saliva; experiment: Inhibition of volatile sulfide production from saliva (anaerobic culture, FPD-GC of head space); assay type: cell-based; conditions: saliva cultured 37° C. 3 hours under nitrogen
Method: A test of inhibitory activity of the fragrance materials on volatile sulfide production from saliva was carried out according to the following method. Saliva was collected in a 50 ml of sterile centrifuge tube from testee without brushing teeth in the morning between 9 to 10 o'clock, and was cooled on ice until use. Each of 2 ml of the saliva was put into sterile test tube with screw cap aseptically. Saliva only was used as control and that mixed with 20 μl of ethanol was used as reference.
After the addition of samples, the inner air was replaced nitrogen in a stream of nitrogen gas at 0.5 atm under stirring with a voltex mixer. Cultivation was carried out at 37° C. for 3 hours and cooled on ice until use. Volatile sulfides were analyzed by a gas chromatograph (FPD-GC) with a flame photometer. In this connection, the samples after the culture were stored in ice-water until their analysis.
Column: 6 m×4 mm i.d. (glass packed column) Column liquid phase: 20% DNP on 80/100 mesh Chromosorb W AW DMCS Column temperature: 100° C. Carrier gas (flow rate): N2 (40 ml/min) Injection temperature: 120° C. Detector: FPD (flame photometric detector; fitted with 393 nm filter for sulfur compound detection) Detector temperature: 150° C.
The inhibition rate of methyl mercaptan was determined according to the following equation:
Inhibition rate (%) of methyl mercaptan={(Blank−Sample)/Blank}×100
Blank and Sample in the equation represent the quantities of producing methyl mercaptan in respective cases. […]

[3] = 500 ppm, read-out: CH3SH Inhib. %
[4] = 1000 ppm, read-out: CH3SH Inhib. %
[5] = 100 ppm, read-out: CH3SH Inhib. %

Compound: O=C/C=C/c1ccccc1 [Cinnamicaldehyde]
- Results of Judgment 30 sec (Log decrease of number of bacteria vs control) ([1]; 2000 ppm): >3.42 Log
- Results of Judgment 1 min (Log decrease of number of bacteria vs control) ([1]; 2000 ppm): >3.42 Log
- inhibition at 2000 ppm ([2]; 2000 ppm, read-out: CH3SH Inhib. %): 100%

Compound: COC(/C=C/c1ccccc1)OC [Cinnamicaldehyde dimethyl acetal]
- CH3SH Inhib. % ([2]; 1000 ppm): 100%

Compound: C=CCc1ccc(O)c(OC)c1 [Eugenol]
- inhibition at 500 ppm [2, 3]: 100%

Compound: CCCCCC=O [Hexylaldehyde]
- CH3SH Inhib. % ([2]; 300 ppm): 82%

Compound: CC(C)c1cccc(=O)c(O)c1 [Hinokitiol]
- Results of Judgment 30 sec (Log decrease of number of bacteria vs control) ([1]; 1000 ppm): >5.24 Log
- Results of Judgment 1 min (Log decrease of number of bacteria vs control) ([1]; 1000 ppm): >5.24 Log
- inhibition at 1000 ppm [2, 4]: 100%

Compound: CC1CCC(C(C)C)C(O)C1 (stereo not shown) [Menthol]
- inhibition at 3000 ppm ([2]; 3000 ppm, read-out: CH3SH Inhib. %): 100%

Compound: CC1=CCC(=C(C)C)CC1 [Terpinolene]
- Results of Judgment 30 sec (Log decrease of number of bacteria vs control) ([1]; 100 ppm): 1.16 Log
- Results of Judgment 1 min (Log decrease of number of bacteria vs control) ([1]; 100 ppm): 1.63 Log
- inhibition at 100 ppm [2, 5]: 36%

Compound: COc1ccccc1C=CC=O [o-Methoxycinnamicaldehyde]
- Results of Judgment 30 sec (Log decrease of number of bacteria vs control) ([1]; 1000 ppm): 2.61 Log
- Results of Judgment 1 min (Log decrease of number of bacteria vs control) ([1]; 1000 ppm): 3.85 Log
- CH3SH Inhib. % ([2]; 1000 ppm): 100%

Compound: CCCCCC(C=O)=Cc1ccccc1 [α-Amylcinnamicaldehyde]
- CH3SH Inhib. % ([2]; 500 ppm): 99%

Compound: CC1(C)C[C@H]2[C@H]1CC[C@]1(C)CCC[C@@]2(O)C1 [Caryophyllene alcohol]
- Results of Judgment 30 sec (Log decrease of number of bacteria vs control) ([1]; 500 ppm): 1.13 Log
- Results of Judgment 1 min (Log decrease of number of bacteria vs control) ([1]; 500 ppm): 2.25 Log
- CH3SH Inhib. % ([2]; 500 ppm): 100%

Compound: CC=Cc1ccc(O)c(OC)c1 [Isoeugenol]
- Results of Judgment 30 sec (Log decrease of number of bacteria vs control) ([1]; 500 ppm): >3.93 Log
- Results of Judgment 1 min (Log decrease of number of bacteria vs control) ([1]; 500 ppm): >3.93 Log
- inhibition at 500 ppm [2, 3]: 100%

Compound: CC(C)=CCCC(C)=CCCC(C)=CCO [Farnesol]
- Results of Judgment 30 sec (Log decrease of number of bacteria vs control) ([1]; 100 ppm): 3.70 Log
- Results of Judgment 1 min (Log decrease of number of bacteria vs control) ([1]; 100 ppm): >4.18 Log
- inhibition at 100 ppm [2, 5]: 100%

Compound: CCCCCCC1CCC(=O)O1 (stereo not shown) [γ-Decalactone]
- CH3SH Inhib. % ([2]; 100 ppm): 59%

Compound: C=CCOC(=O)CCCCCC [Allyl enanthate]
- inhibition at 1000 ppm [2, 4]: 100%

Compound: CCCc1ccc(O)c(OC)c1 [Dihydroeugenol]
- Results of Judgment 30 sec (Log decrease of number of bacteria vs control) ([1]; 2000 ppm): >3.42 Log
- Results of Judgment 1 min (Log decrease of number of bacteria vs control) ([1]; 2000 ppm): >3.42 Log
- CH3SH Inhib. % ([2]; 2000 ppm): 100%

Compound: CCCCCCCC1CCC(=O)O1 (stereo not shown) [γ-Undecalactone]
- CH3SH Inhib. % ([2]; 100 ppm): 70%

Compound: CCOC(=O)c1ccccc1O [Ethyl salicylate]
- inhibition at 1000 ppm [2, 4]: 100%

Compound: C=C1CCC2CC1C2(C)C (stereo not drawn) [β-Pinene]
- Results of Judgment 30 sec (Log decrease of number of bacteria vs control) ([1]; 500 ppm): 0.71 Log
- Results of Judgment 1 min (Log decrease of number of bacteria vs control) ([1]; 500 ppm): 1.12 Log
- inhibition at 500 ppm [2, 3]: 59%

Compound: C=C(C)[C@H]1CC=C(C)CC1 [d-Limonene]
- Results of Judgment 30 sec (Log decrease of number of bacteria vs control) ([1]; 500 ppm): 0.93 Log
- Results of Judgment 1 min (Log decrease of number of bacteria vs control) ([1]; 500 ppm): 1.50 Log
- CH3SH Inhib. % ([2]; 3000 ppm): 100%

Compound: C=CCOC(=O)CCC1CCCCC1 [Allyl cyclohexylpropionate]
- CH3SH Inhib. % ([2]; 500 ppm): 92%

Compound: L-Carvone
- CH3SH Inhib. % ([2]; 1000 ppm): 100%

Compound: CC1=CCC(C(C)C)=CC1 [γ-Terpinene]
- Results of Judgment 30 sec (Log decrease of number of bacteria vs control) ([1]; 500 ppm): 0.94 Log
- Results of Judgment 1 min (Log decrease of number of bacteria vs control) ([1]; 500 ppm): 1.26 Log
- inhibition at 500 ppm [2, 3]: 66%

Compound: CC(C)=CCCC(C)=CC=O [Citral]
- inhibition at 500 ppm [2, 3]: 100%

Compound: Cc1ccc(C(C)C)c(O)c1 [Thymol]
- inhibition at 300 ppm ([2]; 300 ppm, read-out: CH3SH Inhib. %): 100%

Compound: C=CC(C)(CCC=C(C)C)OC(C)=O (stereo not shown) [Linalyl acetate]
- inhibition at 500 ppm [2, 3]: 43%

Compound: COC(=O)c1ccccc1O [Methyl salicylate]
- inhibition at 1000 ppm [2, 4]: 100%

Compound: CC(C)[C@@H]1CC[C@@H](C)C[C@H]1OCC(O)CO (stereo partly shown) [Menthoxypropanediol]
- CH3SH Inhib. % ([2]; 1000 ppm): 100%

Compound: CC(C)=CCC/C(C)=C/CCC(C)CCO (stereo not shown) [Dihydrofarnesol]
- Results of Judgment 30 sec (Log decrease of number of bacteria vs control) ([1]; 300 ppm): >3.42 Log
- Results of Judgment 1 min (Log decrease of number of bacteria vs control) ([1]; 300 ppm): >3.42 Log
- CH3SH Inhib. % ([2]; 300 ppm): 100%
